Results taken from US20100330029A1, “Cancer Treatments with Radiation and Immunocytokines” (Merck Patent GmbH, priority 2008, published 2010).

How the values were obtained:
CT26 colon carcinoma = test: tumor growth assay, CT26 model; assay type: in vivo, mice; conditions: Experiment CT26-4; 8 Gy followed by i.v. EMD521873 days 2, 3, 4
Source text: CT26 cells, a murine colon epithelial cell line derived by intrarectal injection of N-nitroso-N-methylurethane in BALB/C mice, were transfected to express the human KS antigen (KSA or EpCAM) that was cloned by PCR and expressed in parental cells using a retroviral vector (Gillies 1998). CT26/KSA cells were maintained in DMEM, supplemented with 10% heat inactivated fetal bovine serum, L-glutamine, vitamins, sodium pyruvate, non-essential amino acids, penicillin/streptomycin and Geneticin® (G418) (Life Technologies, Inc.) at 37° C. and 7% CO2. G418 was added to maintain KSA expression. CT26 and CT26/KSA cells were implanted in female BALB/C mice.
For the tumor growth assay, cells growing exponentially in culture were injected as a single cell suspension in 100 μl of PBS intramuscularly into the upper legs of the mice. In experiments using a dual tumor model, cells were also implanted in the flanks of the mice. […] Thereafter, animal survival was monitored. […] Mice were treated on days 0 to 6 and day 17, and tumor size was measured twice weekly for the duration of the study.
Tumors were measured with calipers in three dimensions for the duration of the experiment. Tumor volumes were calculated using the equation: […]
In the CT26 model (Experiment CT26-4), tumors were irradiated with either 4 or 8 Gy followed by i.v. EMD521873 on days 2, 3, and 4. […] Immune response in the tumor was not monitored.

[1] = system: CD8 cell infiltration in tumors; test: immunohistochemical analysis of CD8 cell infiltration in LLC tumors; assay type: in vivo, mice; conditions: Experiment LLC-6; combination compared to the monotherapies
Experimental: In another experiment, LLC tumors were established subcutaneously in both the leg and flank of the same animal. Animals were then treated with either cisplatin (4 mg/kg, d0) plus fractionated radiation given to the leg tumor (3.6 Gy/d, d0-4), i.v. EMD521873 alone (5 mg/kg, d7, 8, 9), or the combination of EMD521873 plus chemoradiation (Experiment LLC-6). Tumor growth and immune response in both the irradiated leg tumor and the non-irradiated flank tumor were monitored. […] CD8 effector cells were increased by approximately 4-fold in the blood with the combination compared to either chemoradiation or EMD521873 alone.

[2] = system: T cell and T cell activation-associated genes in the tumor; test: qPCR gene profiling of tumors, CT26/KSA model; assay type: in vivo, mice
Experimental: (§1) Gene profiling of tumors was analyzed using excised tumor tissues placed in RNAlater® RNA stabilizing reagent upon harvest. Total RNA was prepared with an RNeasy® kit (Qiagen) and cDNA was prepared with the Superscript® III kit for qPCR (Life Technologies, Inc.). qPCR reactions were performed on an ABI7500 instrument in a standardized fashion and relative changes in gene expression were analyzed using the ddCt method (efficiency factor 95%). Housekeeping genes used for comparison included ACTB, B2M and HPRT1.

LLC tumors = test: survival after surgical removal of treated LLC tumor; assay type: in vivo, mice; conditions: Experiment LLC-7; EMD521873 5 mg/kg d7, 8, 9 plus chemoradiation; tumor removed day 12 or 13
Experimental: For the tumor growth assay, cells growing exponentially in culture were injected as a single cell suspension in 100 μl of PBS intramuscularly into the upper legs of the mice. In experiments using a dual tumor model, cells were also implanted in the flanks of the mice. After tumors had become established, treatment was initiated (day 0). In Experiment LLC-7, tumors were implanted in the flank until established. Mice were treated on days 0 to 9, then, on day 12, tumors were excised using survival surgery. Thereafter, animal survival was monitored. In Experiment LLC-14, tumors were implanted subcutaneously in the flank until established. Mice were treated on days 0 to 6 and day 17, and tumor size was measured twice weekly for the duration of the study.
In another experiment the ability of local irradiation followed by immunocytokine administration to reduce tumor recurrence following surgery was tested (Experiment LLC-7). Mice with subcutaneous LLC tumors were treated with either chemoradiation (cisplatin 4 mg/kg, d0 plus 3.6 Gy/d, d0-4 of fractionated radiation given to the tumor) or EMD521873 (5 mg/kg, d7, 8, 9) plus chemoradiation. The remaining tumor was then surgically removed on day 12 or 13 and survival was monitored. Ten out of 12 mice treated with the combination achieved long term survival compared to 6 out of 10 treated with radiation alone.

malignant melanoma = test: study in cutaneous/subcutaneous malignant melanoma; assay type: in vivo; conditions: human melanoma; EMD521873 0.3 mg/kg and local radiation vs EMD521873 only
Experimental: A study is performed to investigate the responses of cutaneous metastases in patients with stage IIIb-IV cutaneous/subcutaneous malignant melanoma to EMD521873 at the tumor site and in blood to EMD521873 in combination with local irradiation (25 Gy). The first treatment cycle with EMD521873 starts on day 1. Subsequent cycles are administered at 3-week intervals. Prior to the first dose of EMD521873, subjects are treated with two courses of local radiation (25 Gy) administered in fractions of 5 Gy on 5 consecutive days ([…]; and days −7 to −3) to different metastases.
For each patient, at least two cutaneous or subcutaneous lesions eligible for biopsy are selected for potential radiation (lesion A1 and lesion A2) and, if present, a third lesion (lesion A3) is also selected. A biopsy of a cutaneous/subcutaneous lesion (lesion A1) and blood sampling are performed at baseline (D-28). After 7 days, allowing for the necessary healing of the biopsy area, lesion A1 is irradiated (5×5 Gy) over 5 consecutive days starting on day −21 (D−21 to D−17). On day −7 (D−7) blood samples are withdrawn and a biopsy of the irradiated lesion A1 is taken. This tumor sample serves as an intraindividual control to assess the effect of radiation alone. On day −14, the pre-selected lesions A2 and A3 are also biopsied and blood drawn. […]

[3] = system: immune response markers in the tumor; test: immune marker gene expression profiles in B16 tumors; assay type: in vivo, mice; conditions: 10 Gy d0 followed by EMD521873, compared to either therapy alone
Experimental: as §1
In addition, there was a moderate, but significant increase in certain immune response markers in the tumor as measured by immune marker gene expression profiles with CD25, TNFA, TYROBP, ICOS and CD45 being modulated >4-fold compared to either therapy alone.

dI-NHS76γ2(h)(FN>AQ)-ala-IL2(D20T) [EMD521873]
tumor growth (CT26 colon carcinoma): blocked tumor growth beyond either therapy alone | CD8 cell infiltration enhanced, irradiated lesion [1]: 9 fold | CD8 cell infiltration enhanced, non-irradiated lesion [1]: 3.5 fold | levels of FoxP3 gene expression in the tumor ([2]; radiation followed by EMD521873 (combination)): did not increase | CD8, Granzyme B, and IFNγ gene expression increase in the tumor ([2]; radiation followed by EMD521873, compared to either EMD521873 or radiation alone): 3.5-4.6 fold | long term survival after surgery (LLC tumors): Ten out of 12 | tumor progression (PET or CT scan) (malignant melanoma): reduced tumor progression | CD25, TNFA, TYROBP, ICOS and CD45 gene expression modulated in the tumor [3]: > 4 fold
